Results as given in US5593970A, “Heterocyclic anthracycline analogs” (priority 1994, dated 1997).
Where two headings read alike, the source gives them in different places.

What was measured:
[1] = system: Renal; assay: NCI assay, average per cancer type; settings: Homo sapiens; for CC50: 48 h, read-out: Average LOG10 LC50; for GI50: read-out: Average LOG10 GI50
[2] = system: CNS; assay: NCI assay, average per cancer type; settings: Homo sapiens; for CC50: 48 h, read-out: Average LOG10 LC50; for GI50: read-out: Average LOG10 GI50
[3] = system: SC Lung; assay: NCI assay, average per cancer type; settings: Homo sapiens; for CC50: 48 h, read-out: Average LOG10 LC50; for GI50: read-out: Average LOG10 GI50
[4] = system: Ovarian; assay: NCI assay, average per cancer type; settings: Homo sapiens; for CC50: 48 h, read-out: Average LOG10 LC50; for GI50: read-out: Average LOG10 GI50
[5] = system: Leukemia; assay: NCI assay, average per cancer type; settings: for CC50: 48 h, read-out: Average LOG10 LC50; for GI50: read-out: Average LOG10 GI50
[6] = system: SKVLB; assay: Microculture tetrazolium assay; format: cell-based; settings: for VLB/OV3: IC50 ratio SKVLB/SKOV3; for IC50: SKVLB, read-out: IC50
[7] = system: solid tumors; assay: NCI assay, mean potency in solid tumors; settings: Homo sapiens; for GI50: read-out: Average LOG10 GI50, Mean Potency in solid tumors; for CC50: 48 h, read-out: Average LOG10 LC50, Mean Potency in solid tumors
[8] = system: NSC Lung; assay: NCI assay, average per cancer type; settings: Homo sapiens; for CC50: 48 h, read-out: Average LOG10 LC50; for GI50: read-out: Average LOG10 GI50
[9] = system: SKOV3; assay: Microculture tetrazolium assay; format: cell-based; settings: Homo sapiens, SK-OV-3, SKOV3; read-out: IC50
[10] = system: Colon; assay: NCI assay, average per cancer type; settings: Homo sapiens; for CC50: 48 h, read-out: Average LOG10 LC50; for GI50: read-out: Average LOG10 GI50
[11] = system: Melanoma; assay: NCI assay, average per cancer type; settings: Homo sapiens; for CC50: read-out: Average LOG10 LC50; for GI50: read-out: Average LOG10 GI50
[12] = system: tumor cell lines; assay: NCI sulforhodamine B assay, all cell lines; settings: for CC50 / IC100 / GI50: Homo sapiens; for CC50 / IC100: 48 h; for CC50: read-out: Log10 LC50, Mean / MG-MID, all cell lines (converted); for IC100: read-out: Log10 TGI, Mean / MG-MID, all cell lines; for GI50: read-out: Log10 GI50, Mean / MG-MID, all cell lines (converted)
[13] = system: LOX; assay: Microculture tetrazolium assay; format: cell-based
[14] = system: T47D; assay: Microculture tetrazolium assay; format: cell-based; settings: Homo sapiens, read-out: IC50
[15] = system: HT29; assay: Microculture tetrazolium assay; format: cell-based; settings: Homo sapiens, HT-29, HT29; read-out: IC50

SMILES | CC50 [1] | GI50 [1] | CC50 [2] | GI50 [2] | CC50 [3] | GI50 [3] | CC50 [4] | GI50 [4] | CC50 [5] | GI50 [5] | GI50 [7] | CC50 [8] | GI50 [8] | CC50 [10] | GI50 [10] | CC50 ([11]; 48 h) | GI50 [11] | CC50 [12] | IC100 [12] | GI50 [12] | other results
CCOC(=O)C1CC2=C(C(=O)c3c(c(O)c4ccccc4c3OC)C2=O)C(O[C@H]2C[C@H](NC(=O)C(F)(F)F)[C@H](O)[C@H](C)O2)O1 (mixture of isomers) [BCH-689, (1'S,1R,3S) and (1'S,1S,3R) Ethyl (6-hydroxy-11-methoxy-5,12-dioxo-1-(3,-trifluoroacetamido-1-daunosaminyl)-3,4,5,12-tetrahydroanthraceno[2,3-c]pyran-3-yl)formate] | 37.2 µM | 11.2 µM | 40.7 µM | 12.9 µM | 42.7 µM | 11.5 µM | 42.7 µM | 11.5 µM | < 100 µM | 15.5 µM | 12 µM | 41.7 µM | 13.5 µM | 38.9 µM | 11.2 µM | 41.7 µM | 12.6 µM | 45.7 µM | 26.3 µM | 12.6 µM | VLB/OV3 [6]: 1.06; IC50 [6]: 4.02 µM; IC50 [9]: 3.79 µM
CCOC(=O)[C@@H]1CC2=C(C(=O)c3c(cc4ccccc4c3OC(C)=O)C2=O)[C@@H](O)O1 (relative stereo) [BCH-657, Ethyl[1-hydroxy-11-acetoxy-5,12-dioxo-3,4-5,12-tetrahydroanthraceno(2,3-C)pyran-3-yl]formate] | 12 µM | 1.32 µM | 13.2 µM | 1.86 µM | > 100 µM | 1.26 µM | 17.4 µM | 1.7 µM | > 100 µM | 0.437 µM | 1.29 µM | 11.5 µM | 1.12 µM | 13.5 µM | 0.794 µM | – | 1.35 µM | 26.3 µM | 4.07 µM | 1.17 µM | IC50 [13]: 9.3 µM; VLB/OV3 [6]: 0.99; IC50 [6]: 6.75 µM; IC50 [14]: 13.1 µM; IC50 [15]: 2.28 µM; IC50 [9]: 6.8 µM; antiproliferative and cytotoxic activity in words [12]: strong antiproliferative (GI50) and potent cytotoxic (LC50) activities
CCOC(=O)C1Cc2c(O)c3c(c(O)c2CO1)C(=O)c1ccccc1C3=O (centres unmarked) [BCH-650] | > 100 µM | 52.5 µM | > 100 µM | 45.7 µM | > 100 µM | > 100 µM | > 100 µM | > 100 µM | > 100 µM | 61.7 µM | 52.5 µM | > 100 µM | > 100 µM | > 100 µM | > 100 µM | > 100 µM | – | 100 µM | 100 µM | 79.4 µM | IC50 ([13]; read-out: IC50): 100 µM; IC50 [6]: 100 µM; CC50 [7]: > 100 µM; IC50 [14]: 100 µM; IC50 [15]: 91.1 µM; IC50 [9]: 100 µM; GI50 ([11]; 48 h): > 100 µM
COC(=O)[C@H]1CC2=C(C(=O)c3cc4ccccc4cc3C2=O)[C@H](O[C@H]2C[C@H](NC(=O)C(F)(F)F)[C@H](O)[C@H](C)O2)O1 [BCH-670] | 29.5 µM | 4.37 µM | 26.3 µM | 3.63 µM | 38.9 µM | 3.31 µM | 39.8 µM | 3.8 µM | > 100 µM | 1.66 µM | 3.02 µM | 24 µM | 3.09 µM | 25.1 µM | 2.04 µM | 20.4 µM | 1.78 µM | 29.5 µM | 8.32 µM | 2.75 µM | CC50 [7]: 26.9 µM
COC(=O)[C@@H]1CC2=C(C(=O)c3cc4ccccc4cc3C2=O)[C@@H](O[C@H]2C[C@H](NC(=O)C(F)(F)F)[C@H](O)[C@H](C)O2)O1 [BCH-671] | 23.4 µM | 2.82 µM | 42.7 µM | 4.27 µM | 55 µM | 2.51 µM | 33.9 µM | 3.63 µM | > 100 µM | 1.82 µM | 2.95 µM | 30.2 µM | 4.57 µM | 15.8 µM | 1.91 µM | 21.4 µM | 2.09 µM | 29.5 µM | 7.76 µM | 2.88 µM | IC50 ([13]; read-out: IC50): 2.61 µM; VLB/OV3 [6]: 1.32; IC50 [6]: 6.19 µM; CC50 [7]: 29.5 µM; IC50 [14]: 2.86 µM; IC50 [15]: 4.23 µM; IC50 [9]: 4.69 µM
COC(=O)[C@@H]1CC2=C(C(=O)c3cc4ccccc4cc3C2=O)[C@H](O[C@H]2C[C@H](NC(=O)C(F)(F)F)[C@H](O)[C@H](C)O2)O1 [BCH-672] | 24 µM | 4.17 µM | 31.6 µM | 4.68 µM | 39.8 µM | 2.04 µM | 25.7 µM | 3.16 µM | 42.7 µM | 1.29 µM | 2.75 µM | 27.5 µM | 3.55 µM | 28.2 µM | 1.66 µM | 21.4 µM | 1.55 µM | 26.9 µM | 7.94 µM | 2.63 µM | CC50 [7]: 27.5 µM
CCOC(=O)[C@@H]1CC2=C(C(=O)c3c(cc4ccccc4c3O)C2=O)[C@@H](O[C@H]2C[C@H](NC(=O)C(F)(F)F)[C@H](O)[C@H](C)O2)O1 [BCH-673] | 11 µM | 1.58 µM | 26.9 µM | 2.24 µM | 36.3 µM | 1.82 µM | 21.9 µM | 1.55 µM | > 100 µM | 1.07 µM | 1.55 µM | 21.9 µM | 1.74 µM | 34.7 µM | 0.794 µM | 13.5 µM | 1.48 µM | 20.9 µM | 4.47 µM | 1.48 µM | CC50 [7]: 21.9 µM
COC(=O)[C@@H]1CC2=C(C(=O)c3cc4ccccc4c(O)c3C2=O)[C@@H](O[C@H]2C[C@H](NC(=O)C(F)(F)F)[C@H](O)[C@H](C)O2)O1 [BCH-683] | 26.3 µM | 3.16 µM | 31.6 µM | 3.39 µM | 8.32 µM | 1.86 µM | 15.8 µM | 2.09 µM | < 100 µM | 1.82 µM | 2.09 µM | 28.2 µM | 3.02 µM | 10.5 µM | 1.29 µM | 7.08 µM | 1.12 µM | 21.9 µM | 5.75 µM | 2.14 µM | CC50 [7]: 15.5 µM
CC(=O)C1Cc2c(O)c3c(c(O)c2CO1)C(=O)c1ccccc1C3=O (centres unmarked) [BCH-688, Methyl-(5,12-dihydroxy-6,11-dioxo-3,4,6,11-tetrahydroanthraceno-[2,3-c]pyran-3-yl)ketone] | > 100 µM | > 100 µM | > 100 µM | 53.7 µM | > 100 µM | > 100 µM | > 100 µM | 75.9 µM | > 100 µM | 36.3 µM | 52.5 µM | > 100 µM | > 100 µM | > 100 µM | > 100 µM | > 100 µM | > 100 µM | 100 µM | 97.7 µM | 75.9 µM | IC50 ([13]; read-out: IC50): 100 µM; IC50 [6]: 100 µM; CC50 [7]: > 100 µM; IC50 [14]: 100 µM; IC50 [15]: 100 µM; IC50 [9]: 100 µM
